Laboratory results as given in article PMC10165357, “Brain p3‐Alcβ peptide restores neuronal viability impaired by Alzheimer's amyloid β‐peptide” (EMBO Molecular Medicine, 2023).
Ends that are not written are not given here.

How the values were obtained:
[1] = test system: Ca2+ influx in mouse primary neurons; assay: Ca2+ influx after CaCl2 administration in Ca2+-depleted medium, Fluo 4-AM (Fig 3C, 3D, 4C); type: cell-based; settings: neurons div 11–14, CaCl2 2 mM, D-AP5 5, 50 and 200 μM; AUC 5–14 min; n = 6
Experimental: All animal studies were conducted in compliance with the ARRIVE guidelines. The mouse study was approved by the Animal Studies Committee of Hokkaido University (#18‐0168). WT C57BL/6J (CLEA, Japan, Inc), Alcβ‐KO (RBRC11514) (Gotoh et al, [2020]), App ^ NL‐F/NL‐F (RBRC06343), and App ^ NL‐G‐F/NL‐G‐F (RBRC06344) (Saito et al, [2014]) mice were housed in specific pathogen‐free (SPF) conditions with a microenvironment vent system (Allentown Inc., Allentown, NJ, USA) under a 12 h/12 h light/dark cycle with free access to food and water. Three to five male or female siblings were housed in each cage; cages were equipped with microbarrier tops. All experimental procedures with Cynomolgus monkeys were approved by the Animal Care and Use Committee of Shiga University of Medical Science and were carried out in accordance with approved guidelines (Nishimura et al, [2012]). Stored frozen pieces of the cerebral cortex of monkeys were used. Sprague–Dawley rats (8‐week‐old) were purchased from Japan SLC Inc. (Hamamatsu, Japan) and housed with their littermates. […] All animal protocols and related experiments were approved by the Ethics Committees of the Central Research Laboratory at Hamamatsu Photonics and Hamamatsu University School of Medicine. […]

[2] = test system: Aβo-induced Ca2+ influx in mouse primary neurons; assay: Aβ42 oligomer-induced Ca2+ influx, Fluo 4-AM (Fig 3A, 3B, 4A, 4D, EV2A, EV2B); type: cell-based; settings: neurons div 14, Aβo 5.2 μM
mitochondrial activity = settings: ref Singh et al, 2017; cited from earlier work
From the text: Therefore, we would like to re‐emphasize that the function of p3‐Alcβ is to increase neuronal viability and to protect neurons against Aβ‐induced toxicity, and that the target of p3‐Alcβ may not directly be Aβ peptide and Aβ aggregates/plaques. This property of p3‐Alcβ as a druggable candidate for AD therapy is likely to be distinct from immunotherapies that use anti‐Aβ antibodies. Furthermore, the fu ...

[3] = WT mice, s.c. injection 5 mg/kg, n = 4 per time point
From the text: IgG was purified with antigen‐coupled resin and conjugated to biotin. Horseradish peroxidase‐conjugated streptavidin was purchased from Amersham/GE Healthcare (Cat #RPN1051, Little Chalfont, UK), and the tetramethyl benzidine (TMB) microwell peroxidase substrate system was obtained from SeraCare Life Sciences Inc. (Cat #5120‐0075, Milford, MA, USA). Mice were then anesthetized with 1% isoflurane, CSF was collected from the cisterna magna as described previously (Liu & Duff, [2008]), and mice were then sacrificed. […] The sensitivity of this ELISA is equivalent to that of other sELISA systems used to quantify p3‐Alcβ37 and p3‐Alcβ40 (Hata et al, [2019]). Antiserum diluted 1:10,000 was used as a capture antibody in the sELISA. The antibody was affinity‐purified with antigen‐coupled resin, and biotin‐labeled IgG was then used as the detection antibody.

[4] = Alcβ-KO mice, subcutaneous administration

## NC(CCCP(=O)(O)O)C(=O)O (stereo not drawn) [D‐AP5]
[1]
  Ca2+ influx after Ca2+ administration with D-AP5 (Fig 4C): slightly, but not significantly, reduced
[2]; D-AP5 50 μM, AUC 5–29 min, n = 4
  Aβo-induced Ca2+ entry with NMDA antagonist (Fig 4A): suppressed
[2]; p3-Alcβ9-19 50 μM or D-AP5 50 μM, AUC 5–28 min, n = 12
  suppression of Aβo-triggered Ca2+ influx, single agents (Fig 4D): suppressed significantly

## CC12CC3CC(C)(C1)CC(N)(C3)C2 [memantine]
Mitochondrial activity
  mitochondrial activity: does not increase mitochondrial activity

## HRGHQPPPEMA [p3‐Alcβ9‐19]
[3]
  transfer into the brain, p3-Alcβ9-19 levels in CSF by sELISA: successful transfer

## VLSSQQFLHRGHQPPPEMAGHSLASSHRNSMIPSAAT [p3‐Alcβ37]
[4]
  transport into the brain: transported into the brain
